This passage reports IC50 results from BindingDB's records for PubMed 38171251 (Indian Institute of Technology (Banaras Hindu University)).

pIC50: −log10 of the molar value. Some results are limits rather than exact numbers.

A short description of the test: Inhibition of Acetyl-CoA acetyltransferase (unknown origin).

`Clc1ccccc1CNC1=Nc2ccccc2NC12CCNCC2`: the pIC50 was 7.66.
Under `CC1CCC2(CC1)Nc1ccccc1N=C2NCc1ccccc1Cl` (stereo unspecified) stands 6.77; under `CC1CCC2(CC1)NC=CN=C2NCc1ccccc1Cl` (stereo unspecified), < 6.00; under `Cc1ccccc1CNC1=Nc2ccccc2NC12CCNCC2`, 7.60.
The same measure for `Clc1cccc(CNC2=Nc3ccccc3NC23CCNCC3)c1`: 7.66; for `Cc1ccc(CNC2=Nc3ccccc3NC23CCCCC3)cc1`: 6.57.
